pIC50: −log10 of the molar value. Where no end group is shown, it is not given here.
What was measured:
[1] = tested on: GluN1a–GluN2B; conditions: cited from earlier work
[2] = tested on: NMDA-evoked currents in cortical neurons; conditions: cited from earlier work
[3] = tested on: NMDA-evoked currents in hippocampal neurons; conditions: cited from earlier work
[4] = tested on: NMDAr containing the GluN2B subunit; conditions: cited from earlier work
[5] = tested on: NMDA-evoked currents in cultured rat embryonic hippocampal neurons (NMDAr)
[6] = tested on: voltage-dependent Ca^+2 channels; conditions: 1 µM; ref [40]; cited from earlier work
[7] = tested on: voltage-dependent Na^+ channels; conditions: 1 µM; ref [40]; cited from earlier work
[8] = tested on: NMDA/GluN2B; conditions: Ro 25-6981 1 µM; ref [40]; cited from earlier work

Compound | pIC50 [1] | recovery of NMDA-evoked currents after washout [1] | pIC50 [2] | recovery of NMDA-evoked current after washout [2] | reversibility [2] | pIC50 [3] | selectivity for NMDAr containing the GluN2B subunit [4] | block of NMDA-evoked currents, percent (GluN2B blocker) [5] [%] | reversibility of block [5] | use-dependence of block [5] | effect on voltage-dependent Ca^+2 channels [6] | effect on voltage-dependent Na^+ channels [7] | 1 µM relative to the concentration producing 50% inhibition of NMDA/GluN2B-mediated currents [8] [fold] | block of NMDA-evoked currents [5]
conantokin-G: 17 amino acid peptide (MW 2264.2 Da), cone snail toxin selective for NMDAr containing GluN2B (GEEELQENQELIREKSN; ends and bridges not checked; UniProt P07231 81-97, looked up) | 7.00 | about 80% | 6.32 | about 10% | very slow and incomplete reversibility | 6.32 | selective for NMDAr containing the GluN2B subunit |  |  |  |  |  |  | 
C[C@@H](CN1CCC(Cc2ccccc2)CC1)[C@@H](O)c1ccc(O)cc1 [Ro 25-6981] |  |  |  |  |  |  |  | 70 | no reversibility following 4 min of washout | use-dependent | minimal or no effects | minimal or no effects | 100 | 
C[C@]12N[C@H](Cc3ccccc31)c1ccccc12 [(+)MK-801, Dizocilpine] |  |  |  |  |  |  |  |  | irreversible | increased with exposures to the blocker |  |  |  | blocked the NMDA-evoked currents

From PMC5433008 (BMC Neuroscience, 2017)
